Assay results reported in ChEMBL document CHEMBL1152723, “Remarkable enhancement in the DNA-binding ability of C2-fluoro substituted pyrrolo[2,1-c][1,4]benzodiazepines and their anticancer potential” (2009).

How the values were obtained:
UACC-62 = test: Growth inhibition of human UACC62 cells after 48 hrs by sulforhodamine B protein assay; format: functional; details: UACC-62, 48 h
[1] = Growth inhibition of human […] cells after 48 hrs by sulforhodamine B protein assay; format: functional
786-0 = test: Growth inhibition of human 786-0 cells after 48 hrs by sulforhodamine B protein assay; format: functional; details: 786-0, 48 h
OVCAR-5 = test: Growth inhibition of human OVCAR5 cells after 48 hrs by sulforhodamine B protein assay; format: functional; details: OVCAR-5, 48 h
U-251 = test: Growth inhibition of human U251 cells after 48 hrs by sulforhodamine B protein assay; format: functional; details: U-251, 48 h
SN12C = test: Growth inhibition of human SN12C cells after 48 hrs by sulforhodamine B protein assay; format: functional
HL-60(TB) = test: Growth inhibition of human HL-60(TB) cells after 48 hrs by sulforhodamine B protein assay; format: functional; details: HL-60, 48 h
HCT-15 = test: Growth inhibition of human HCT15 cells after 48 hrs by sulforhodamine B protein assay; format: functional; details: HCT-15, 48 h
BT-549 = test: Growth inhibition of human BT549 cells after 48 hrs by sulforhodamine B protein assay; format: functional; details: BT-549, 48 h
EKVX = test: Growth inhibition of human EKVX cells after 48 hrs by sulforhodamine B protein assay; format: functional
SK-OV-3 = test: Growth inhibition of human SKOV3 cells after 48 hrs by sulforhodamine B protein assay; format: functional; details: SK-OV-3, 48 h
[2] = Growth inhibition of human Hs 578T cells after 48 hrs by sulforhodamine B protein assay; format: functional
HCT-116 = test: Growth inhibition of human HCT116 cells after 48 hrs by sulforhodamine B protein assay; format: functional; details: HCT-116, 48 h
HOP-62 = test: Growth inhibition of human HOP62 cells after 48 hrs by sulforhodamine B protein assay; format: functional; details: HOP-62, 48 h
SK-MEL-2 = test: Growth inhibition of human SK-MEL-2 cells after 48 hrs by sulforhodamine B protein assay; format: functional; details: SK-MEL-2, 48 h
SF-539 = test: Growth inhibition of human SF539 cells after 48 hrs by sulforhodamine B protein assay; format: functional; details: SF-539, 48 h
NCI-H322M = test: Growth inhibition of human NCI-H322M cells after 48 hrs by sulforhodamine B protein assay; format: functional
TK-10 = test: Growth inhibition of human TK10 cells after 48 hrs by sulforhodamine B protein assay; format: functional; details: TK-10, 48 h
Malme-3M = test: Growth inhibition of human MALME-3M cells after 48 hrs by sulforhodamine B protein assay; format: functional
NCI-H522 = test: Growth inhibition of human NCI-H522 cells after 48 hrs by sulforhodamine B protein assay; format: functional; details: NCI-H522, 48 h
LOX IMVI = test: Growth inhibition of human LOXIMVI cells after 48 hrs by sulforhodamine B protein assay; format: functional
ACHN = test: Growth inhibition of human ACHN cells after 48 hrs by sulforhodamine B protein assay; format: functional
IGROV-1 = test: Growth inhibition of human IGROV1 cells after 48 hrs by sulforhodamine B protein assay; format: functional; details: IGROV-1, 48 h
MDA-MB-435 = test: Growth inhibition of human MDA-MB-435 cells after 48 hrs by sulforhodamine B protein assay; format: functional; details: MDA-MB-435, 48 h
DU-145 = test: Growth inhibition of human DU145 cells after 48 hrs by sulforhodamine B protein assay; format: functional; details: DU-145, 48 h
MDA-MB-231 = test: Growth inhibition of human MDA-MB-231 cells after 48 hrs by sulforhodamine B protein assay; format: functional; details: MDA-MB-231, 48 h
SW-620 = test: Growth inhibition of human SW620 cells after 48 hrs by sulforhodamine B protein assay; format: functional; details: SW-620, 48 h
[3] = target: T1, Type II restriction enzyme BamHI (Bacillus amyloliquefaciens) (UniProt P23940); test: Inhibition of Bacillus amyloliquefaciens BamH1-mediated pBR322 cleavage after 16 hrs by RED100-restriction endonuclease digestion assay
T1 sequence (whole entry): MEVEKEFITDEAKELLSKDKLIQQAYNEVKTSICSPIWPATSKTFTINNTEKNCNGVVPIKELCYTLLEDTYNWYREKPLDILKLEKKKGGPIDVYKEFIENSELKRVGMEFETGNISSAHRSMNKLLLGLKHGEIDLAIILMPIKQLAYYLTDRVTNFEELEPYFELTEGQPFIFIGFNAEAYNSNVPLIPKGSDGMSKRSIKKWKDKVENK

T47D = test: Growth inhibition of human T47D cells after 48 hrs by sulforhodamine B protein assay; format: functional
NCI-H226 = test: Growth inhibition of human NCI-H226 cells after 48 hrs by sulforhodamine B protein assay; format: functional; details: NCI-H226, 48 h
OVCAR-8 = test: Growth inhibition of human OVCAR8 cells after 48 hrs by sulforhodamine B protein assay; format: functional; details: OVCAR-8, 48 h
MCF7 = test: Growth inhibition of human MCF7 cells after 48 hrs by sulforhodamine B protein assay; format: functional; details: MCF7, 48 h
HCC 2998 = test: Growth inhibition of human HCC2998 cells after 48 hrs by sulforhodamine B protein assay; format: functional; details: HCC 2998, 48 h
OVCAR-4 = test: Growth inhibition of human OVCAR4 cells after 48 hrs by sulforhodamine B protein assay; format: functional; details: OVCAR-4, 48 h
NCI-H23 = test: Growth inhibition of human NCI-H23 cells after 48 hrs by sulforhodamine B protein assay; format: functional; details: NCI-H23, 48 h
COLO 205 = test: Growth inhibition of human COLO205 cells after 48 hrs by sulforhodamine B protein assay; format: functional; details: COLO 205, 48 h
HT-29 = test: Growth inhibition of human HT-29 cells after 48 hrs by sulforhodamine B protein assay; format: functional; details: HT-29, 48 h
SR = test: Growth inhibition of human SR cells after 48 hrs by sulforhodamine B protein assay; format: functional
NCI-H460 = test: Growth inhibition of human NCI-H460 cells after 48 hrs by sulforhodamine B protein assay; format: functional; details: NCI-H460, 48 h
SNB-75 = test: Growth inhibition of human SNB75 cells after 48 hrs by sulforhodamine B protein assay; format: functional; details: SNB-75, 48 h
CCRF-CEM = test: Growth inhibition of human CCRF-CEM cells after 48 hrs by sulforhodamine B protein assay; format: functional
SK-MEL-28 = test: Growth inhibition of human SK-MEL-28 cells after 48 hrs by sulforhodamine B protein assay; format: functional; details: SK-MEL-28, 48 h
K562 = test: Growth inhibition of human K562 cells after 48 hrs by sulforhodamine B protein assay; format: functional; details: K562, 48 h
UO-31 = test: Growth inhibition of human UO31 cells after 48 hrs by sulforhodamine B protein assay; format: functional; details: UO-31, 48 h
DNA = test: Binding affinity to calf thymus DNA assessed as change in melting temperature at a compound to DNA molar ratio of 1:5 at pH 7 by thermal denaturation assay; format: nucleic-acid assay; details: Bos taurus
KM12 = test: Growth inhibition of human KM12 cells after 48 hrs by sulforhodamine B protein assay; format: functional; details: KM12, 48 h
OVCAR-3 = test: Growth inhibition of human OVCAR-3 cells after 48 hrs by sulforhodamine B protein assay; format: functional; details: OVCAR-3, 48 h
PC-3 = test: Growth inhibition of human PC3 cells after 48 hrs by sulforhodamine B protein assay; format: functional; details: PC-3, 48 h
CAKI-1 = test: Growth inhibition of human Caki1 cells after 48 hrs by sulforhodamine B protein assay; format: functional; details: CAKI-1, 48 h
SF-295 = test: Growth inhibition of human SF295 cells after 48 hrs by sulforhodamine B protein assay; format: functional; details: SF-295, 48 h
SNB-19 = test: Growth inhibition of human SNB19 cells after 48 hrs by sulforhodamine B protein assay; format: functional; details: SNB-19, 48 h
MOLT-4 = test: Growth inhibition of human MOLT4 cells after 48 hrs by sulforhodamine B protein assay; format: functional; details: MOLT-4, 48 h
A549 = test: Growth inhibition of human A549 cells after 48 hrs by sulforhodamine B protein assay; format: functional; details: A549, 48 h
UACC-257 = test: Growth inhibition of human UACC257 cells after 48 hrs by sulforhodamine B protein assay; format: functional; details: UACC-257, 48 h
A498 = test: Growth inhibition of human A498 cells after 48 hrs by sulforhodamine B protein assay; format: functional; details: A498, 48 h

## COc1cc2c(cc1OCCCOc1cc3c(cc1OC)C(=O)N1CC(F)(F)C[C@H]1C=N3)N=C[C@@H]1CC(F)(F)CN1C2=O
UACC-62
  GI50: 410 nM
[1]
  GI50: 1670 nM
786-0
  GI50: < 10 nM
OVCAR-5
  GI50: 750 nM
U-251
  GI50: 110 nM
SN12C
  GI50: 170 nM
HL-60(TB)
  GI50: 250 nM
HCT-15
  GI50: 8620 nM
BT-549
  GI50: 410 nM
EKVX
  GI50: 1720 nM
SK-OV-3
  GI50: 600 nM
[2]
  GI50: 170 nM
HCT-116
  GI50: 130 nM
HOP-62
  GI50: 100 nM
SK-MEL-2
  GI50: 1620 nM
SF-539
  GI50: 150 nM
NCI-H322M
  GI50: 2190 nM
TK-10
  GI50: 3450 nM
Malme-3M
  GI50: 1030 nM
NCI-H522
  GI50: 140 nM
LOX IMVI
  GI50: 200 nM
ACHN
  GI50: 650 nM
IGROV-1
  GI50: 110 nM
MDA-MB-435
  GI50: 570 nM
DU-145
  GI50: 370 nM
MDA-MB-231
  GI50: 800 nM
SW-620
  GI50: 310 nM
[3]
  Activity: Dose-dependent effect
T47D
  GI50: 240 nM
NCI-H226
  GI50: 620 nM
OVCAR-8
  GI50: 420 nM
MCF7
  GI50: 130 nM
HCC 2998
  GI50: 1030 nM
OVCAR-4
  GI50: 1450 nM
NCI-H23
  GI50: 490 nM
COLO 205
  GI50: 580 nM
HT-29
  GI50: 270 nM
SR
  GI50: < 60 nM
NCI-H460
  GI50: < 80 nM
SNB-75
  GI50: 80 nM
CCRF-CEM
  GI50: 410 nM
SK-MEL-28
  GI50: 1130 nM
K562
  GI50: 530 nM
UO-31
  GI50: 1050 nM
DNA
  ΔTm: 13.1 °C
KM12
  GI50: 2070 nM
OVCAR-3
  GI50: 940 nM
PC-3
  GI50: < 80 nM
CAKI-1
  GI50: < 10 nM
SF-295
  GI50: < 30 nM
SNB-19
  GI50: 350 nM
MOLT-4
  GI50: 80 nM
A549
  GI50: 1210 nM
UACC-257
  GI50: 1330 nM
A498
  GI50: 610 nM
